Measured values published in ChEMBL document CHEMBL1141400, “Influence of conformation and intramolecular hydrogen bonding on the acyl glucuronidation and biliary excretion of acetylenic bis-dipyrrinones related to bilirubin” (J Med Chem, 2007).

Test system: Rattus norvegicus
Assay: Hepatobiliary metabolism in UGT1A1-deficient Gunn rat measured as biliary excretion at 0.25 mg, iv within 240 mins
Type: ADME, organism-based, Bile
Conditions: in vivo, 4 h

Activity: 93%
SMILES: CCC1=C(C)C(=O)N/C1=C\c1[nH]c(C#Cc2[nH]c(/C=C3/NC(=O)C(C)=C3CC)c(C)c2CCC(=O)O)c(CCC(=O)O)c1C
